The text below walks through data of US20030083304A1, “CCAAT/enhancer binding protein-beta (C/EBPbeta) is a molecular target for cancer treatment” (priority 2001, published 2003).

Marks after values point to notes of the source that are not given here.

Data set [1] deals with epidermal keratinocytes. In words: Apoptotic epidermal keratinocytes in DMBA-treated mice. The format is in vivo, mouse. The conditions noted are these: for Apoptotic Keratinocytes (%): single application 400 nmol DMBA. The source says:
The lack of tumor development in carcinogen treated C/EPBβ-null mice could be due to apoptosis of C/EBPβ-deficient keratinoyctes that have acquired oncogenic Ha-ras lesions. To examine this possibility we treated mice with DMBA and scored the number of apoptotic keratinocytes in C/EBPβ-null and wild type epidermis using the cytological parameters described in the Methods. […] Similar fold increases in apoptotic cells were observed using TUNEL staining (data not shown). To determine if C/EBPβ-null mice also display increased apoptosis in response to UVB irradiation, a potent inducer of apoptosis and DNA damage, wild type and C/EBPβ-null mice were irradiated with UVB doses of 50, 100 and 200 mJ/cm^2. While all UVB doses increased the number of apoptotic epidermal keratinocytes, there was no difference between wild type and mutant mice (data not shown).

Data set [2] deals with mouse skin. The conditions noted are these: in vivo.
The subject of data set [3] is C/EBPβ. The experiment in a line: Ha-ras (12V)-induced activation of C/EBPβ in mouse keratinocytes. The data set is classed as cell-based. The text has this:
A MAPK site has been identified in C/EBPβ. Replacing Thr-188 with an Ala-188 within this site completely blocks Ras-induced activation of C/EBPβ. […] Thus, the MAPK site in C/EBPβ, which is conserved in mouse, rat, bovine and human, is important in Ras signaling. Accordingly, useful compounds of the present invention are MAPK inhibitors such as PD98059, or compounds that bind the MAPK site in C/EBPβ and thus block oncogenic ras-induced activation.

Consider `Cc1c2ccccc2c(C)c2c1ccc1ccccc12` [DMBA, 7,12-dimethylbenz[a]anthracene], for which, in data set [1] (DMBA-treated), the “increase in the number of basal apoptotic keratinocytes, C/EBPβ-null vs wild type mice” value is given as 17 fold. The “Apoptotic Keratinocytes (%)” value in data set [1] (C/EBPβ −/− mice) is reported as 1.73 ± 0.14^ab %. Further, the “Apoptotic Keratinocytes (%)” value in data set [1] (wild type mice) is 0.10 ± 0.02^a %. Further, the average papillomas/mouse in data set [2] (129/Sv x C57BL/6 (wild type)) was determined as 12 papillomas/mouse. For the same molecule, in data set [2], the papilloma incidence result is “All of the wild-type mice developed papillomas” and the resistance to carcinogenesis result is reported as “completely resistant”.

Take `COc1cccc(-c2cc(=O)c3ccccc3o2)c1N` [PD98059]: in data set [3], the “Ha-ras (12V)-induced activation of C/EBPβ” value is “partially blocks”.

On to `ClC1(Cl)C2(Cl)C3(Cl)C4(Cl)C(Cl)(Cl)C5(Cl)C3(Cl)C1(Cl)C5(Cl)C24Cl` (centres unmarked) [mirex], for which the tumor development result in data set [2] is on record as “refractory”.
